Results taken from ChEMBL document CHEMBL2150883, “Development of indole compounds as small molecule fusion inhibitors targeting HIV-1 glycoprotein-41” (J Med Chem, 2011).
pEC50, pKi: −log10 of the molar value.

Tests used:
[1] = Cytotoxicity against human MAGI-CCR5 cells assessed as cell viability by MTS assay; format: cell-based
[2] = Cytotoxicity against human MAGI-CCR5 cells assessed as cell viability by MTS assay in presence of 2% serum; format: cell-based
[3] = tested on: Human immunodeficiency virus 1; assay: Antiviral activity against HIV1 Ba-L assessed as inhibition of viral replication by CCR5/CXCR4-tropic MAGI assay in presence of 2% serum; format: functional, organism-based; details: Human immunodeficiency virus 1, Ba-L
[4] = tested on: Human immunodeficiency virus 1; assay: Antiviral activity against HIV1 Ba-L assessed as inhibition of viral replication by CCR5/CXCR4-tropic MAGI assay in presence of 5% serum; format: functional, organism-based; details: Human immunodeficiency virus 1, Ba-L
[5] = tested on: Human immunodeficiency virus 1; assay: Antiviral activity against HIV1 Ba-L assessed as inhibition of viral replication by CCR5/CXCR4-tropic MAGI assay in presence of 10% serum; format: functional, organism-based; details: Human immunodeficiency virus 1, Ba-L
[6] = tested on: Human immunodeficiency virus 1; assay: Antiviral activity against HIV1 3B assessed as inhibition of viral replication by CCR5/CXCR4-tropic MAGI assay in presence of 10% serum; format: functional, organism-based; details: Human immunodeficiency virus 1, 3B
[7] = Cytotoxicity against human MAGI-CCR5 cells assessed as cell viability by MTS assay in presence of 5% serum; format: cell-based
[8] = Cytotoxicity against human MAGI-CCR5 cells assessed as cell viability by MTS assay in presence of 10% serum; format: cell-based
[9] = Binding affinity to HIV1 HXB2 gp41 by fluorescence assay; parameters: species or system Human immunodeficiency virus 1
[10] = Inhibition of gp41 in HIV1 HXB2 assessed as cell-cell fusion inhibition after 6 hrs by luciferase reporter gene assay; details: Human immunodeficiency virus 1, HXB2, 6 h

SMILES	CC50 ([1]; MAGI-CCR5 cells)	CC50 ([1]; magi-ccr5)	CC50 [2]	pEC50 [3]	pEC50 [4]	pEC50 [5]	pEC50 [6]	CC50 [7]	CC50 [8]	pKi [9]	pEC50 [10]
O=C(O)c1cccc(Cc2ccc3ccn(Cc4cccc(C(=O)O)c4)c3c2)c1	> 200 µM	–	–	–	–	–	–	–	–	–	–
COc1ccc(Cn2ccc3ccc(Cc4cccc(C(=O)O)c4)cc32)cc1	–	100 µM	92.7 µM	4.25	4.04	< 4.00	< 4.00	> 100 µM	> 100 µM	–	–
O=C(O)C(=O)c1c[nH]c2cc(Cc3cccc(C(=O)O)c3)ccc12	> 100 µM	–	–	–	–	–	–	–	–	–	–
O=C(O)c1cc(O)cc(Cc2ccc3cc[nH]c3c2)c1	> 500 µM	–	> 100 µM	< 4.00	< 4.00	< 4.00	< 4.00	> 100 µM	> 100 µM	–	–
COc1ccc(COc2cccc(-c3ccc4ccn(Cc5cccc(C(=O)OCc6cccc(C(=O)O)c6)c5)c4c3)c2)cc1	–	> 100 µM	58.9 µM	4.86	4.73	4.65	4.46	> 100 µM	> 100 µM	–	–
O=C(O)c1cccc(COc2cccc(-c3ccc4ccn(Cc5cccc(C(=O)O)c5)c4c3)c2)c1	> 500 µM	–	> 100 µM	4.47	4.25	< 4.00	< 4.00	> 100 µM	> 100 µM	–	–
COc1cccc(-c2ccc3ccn(Cc4cccc(C(=O)O)c4)c3c2)c1	> 500 µM	–	67.5 µM	4.74	4.44	4.32	4.24	> 100 µM	> 100 µM	–	–
O=C(O)c1cccc(-c2ccc3cc[nH]c3c2)c1	> 100 µM	–	–	–	–	–	–	–	–	–	–
O=C(O)c1cccc(Cn2ccc3ccc(-c4cccc(O)c4)cc32)c1	–	> 100 µM	> 100 µM	4.56	4.23	4.08	< 4.00	> 100 µM	> 100 µM	–	–
COc1cc(Cc2ccc3cc[nH]c3c2)cc(C(=O)O)c1	–	> 100 µM	> 100 µM	5.06	< 4.00	< 4.00	< 4.00	> 100 µM	> 100 µM	–	–
COc1ccc(C(=O)O)cc1Cc1ccc2cc[nH]c2c1	–	> 100 µM	> 100 µM	< 4.00	< 4.00	< 4.00	< 4.00	> 100 µM	> 100 µM	–	–
O=C(O)c1ccc(O)c(Cc2ccc3cc[nH]c3c2)c1	> 500 µM	–	> 100 µM	4.37	4.05	< 4.00	< 4.00	> 100 µM	> 100 µM	–	–
O=C(O)c1cccc(Cn2ccc3cc(-c4ccc5cc(Cl)ccc5n4)ccc32)c1	–	> 100 µM	50.1 µM	5.19	5.00	4.88	4.81	> 100 µM	> 100 µM	–	–
O=C(O)c1cccc(Cn2ccc3ccc(-c4ccc5ccn(Cc6ccc(F)cc6)c5c4)cc32)c1	–	17 µM	52.2 µM	5.81	5.48	5.35	5.28	98.5 µM	> 100 µM	5.96	6.27
O=Cc1c[nH]c2cc(Cc3cccc(C(=O)O)c3)ccc12	> 100 µM	–	–	–	–	–	–	–	–	–	–
O=C(O)c1cccc(Cc2ccc3[nH]ccc3c2)c1	> 400 µM	–	> 100 µM	4.37	4.28	4.20	< 4.00	> 100 µM	> 100 µM	–	–
O=C(O)c1cccc(Cc2ccc3c(ccn3Cc3cccc(C(=O)O)c3)c2)c1	> 100 µM	–	–	–	–	–	–	–	–	4.46	< 4.00
O=C(O)c1cccc(Cc2ccc3cc[nH]c3c2)c1	–	–	> 100 µM	4.81	4.46	4.35	4.00	> 100 µM	> 100 µM	–	–
O=C(O)c1cccc(Cn2ccc3ccc(-c4ccc5cc(Cl)ccc5n4)cc32)c1	–	47 µM	> 100 µM	4.32	4.05	< 4.00	< 4.00	> 100 µM	> 100 µM	–	–
O=C(O)c1cccc(Cc2ccc3ccn(Cn4ccc5ccc(Cc6cccc(C(=O)O)c6)cc54)c3c2)c1	–	–	> 100 µM	4.84	4.30	4.04	< 4.00	> 100 µM	> 100 µM	–	–
O=C(O)c1ccc([N+](=O)[O-])c(Cc2ccc3cc[nH]c3c2)c1	–	> 100 µM	> 100 µM	4.73	4.08	< 4.00	< 4.00	> 100 µM	> 100 µM	–	–
O=C(O)c1cccc(Cc2ccc3ccn(-c4cccc(C(=O)O)c4)c3c2)c1	> 400 µM	–	–	–	–	–	–	–	–	4.35	–
COc1cccc(-n2ccc3ccc(Cc4cccc(C(=O)O)c4)cc32)c1	–	–	> 100 µM	4.80	4.47	4.17	4.21	> 100 µM	> 100 µM	–	–
COc1ccc(Cn2ccc3ccc(-c4ccc5ccn(Cc6cccc(C(=O)O)c6)c5c4)cc32)cc1	–	19 µM	50.1 µM	6.04	5.70	5.62	5.55	> 100 µM	> 100 µM	–	–
